Data published in patent US20090238852A1, “METHODS FOR CONTROLLING INTRACELLULAR CALCIUM LEVELS ASSOCIATED WITH AN ISCHEMIC EVENT” (University of Utah Research Foundation, priority 2008, published 2009).

Columns and labels:
blood coagulation (aPTT) = test: Phase I bolus plus 72 hour infusion study: aPTT; type: in vivo, human; details: from relationship of aPTT change and ODSH level, FIG. 23
Method: (§1) A study was performed in eight (8) healthy adult male and female subjects to assess the effects of a bolus dose and 72 hour infusion of 2-O, 3-O desulfated heparin. The study was a Phase I study with a three day treatment period. Doses were adjusted to maintain an aPTT level of 40-45 seconds. Subjects were between the ages of 18 and 60, were not pregnant, and were normal in body weight. They all had normal coagulation function and hemoglobin values at baseline.
Subjects received an initial bolus of 8 mg/kg of ODSH over 15 minutes, followed by 72 hours continuous infusion beginning at 0.58 mg/kg/hr. For each subject ODSH as a 50 mg/ml formulation was diluted with normal saline and administered as a bolus infused over 15 minutes containing the calculated amount of ODSH the subject was to receive, followed by infusion of ODSH diluted in saline. The infusion dose was adjusted to maintain an aPTT of 40-45 seconds. […] Using values for aPTT and ODSH levels, pharmacokinetic parameters were calculated by noncompartmental methods using a commercial software program (PhAST 2.3-001). The following pharmacokinetic parameters were calculated as above: Cmax; Kel; tmax; AUC O-t; AUCinf, t1/2; CL; and Vdss.

NCX = NCX current (INCX) voltage clamp in intact isolated ventricular myocytes; type: cell-based, rabbit; details: ODSH 100 μg/ml; approximately −60 mV to +50 mV; n = 5; FIG. 7
Text: The direct effects of ODSH on NCX were further measured by means of voltage clamp studies in intact isolated rabbit ventricular myocytes. […] This finding was initially surprising but is consistent with a previous report that heparin and heparan sulfate disaccharides can stimulate Ca^2+ extrusion by NCX in smooth muscle cell lines (Shinjo et al, 2002). […] We therefore studied the effects of ODSH on Na^+ loading.

[1] = system: myeloperoxidase (MPO) activity; test: Porcine ischemia/reperfusion model: myeloperoxidase activity in myocardium; type: in vivo, pig; details: ODSH 45 mg/kg; FIG. 11
Text: Arterial access was achieved via bilateral femoral artery cut-downs for the insertion of 8F sheaths. Central venous and carotid access was achieved via a neck incision to expose the external jugular vein and common carotid artery. Animals were then anticoagulated with 50 U/kg of unfractionated heparin to maintain an activated clotting time (ACT) between 250-350 seconds, prior to ischemia. A 7-8 Fr pigtail catheter was placed in the left ventricular cavity to measure pressure and for injection of 15 μneutron-activated microspheres. […] Baseline cardiodynamic and hemodynamic data were measured using a solid state transducer-tipped catheter in the left ventricle (Millar Instruments, Houston, Tex.) to measure left ventricular pressure, and a fluid-filled transducer connected to the side port of the femoral artery sheath to measure peripheral arterial pressure. Approximately 3-4 million neutron-activated microspheres (BioPhysics Assay Laboratory, Inc, Worcester, Ma) (15 μm) were delivered through a pig-tail catheter into the left ventricle over a 30 second period, to quantify regional myocardial blood flow (RMBF). […] Balloon occlusion time was 75 minutes with coronary occlusion confirmed by contrast angiography, ST segment changes on electrocardiography, and quantitatively confirmed by microspheres delivered at the end of ischemia, as described above. […]

[2] = system: anti-coagulant activity (USP); details: product of the procedure of U.S. Pat. No. 5,990,097; cited from earlier work
[3] = system: platelets with HIT antibody
Method: The second technique employed was flow cytometric platelet analysis. In this functional test, platelets in whole blood are activated by heparin or heparin analog in the presence of heparin antibody in serum from a patient clinically diagnosed with HIT. Using flow cytometry, platelet activation was determined in two manners: by the formation of platelet microparticles and by the increase of platelet surface bound P-selectin.
Specifically, whole blood drawn by careful double-syringe technique was anticoagulated with hirudin (10 μg/ml final concentration). An aliquot of whole blood (50 μL) was immediately fixed in 1 ml 1% paraformaldehyde (gating control). […] Samples were analyzed on an EPICS XL flow cytometer (Beckman-Couter; Hialeah, Fla.) for forward angle (FALS) and side angle light scatter, and for FITC and PE (phycoerythrin) fluorescence. […]
Using the gating control sample, amorphous regions were drawn to include single platelets and platelet microparticles. Platelet microparticles were distinguished from platelets on the basis of their characteristic flow cytometric profile of cell size (FALS) and FITC fluorescence (CD61 platelet marker). […] Data was reported as a percentage of the total number of CD61-positive events analyzed.

[4] = in vivo
Method: as §1
Subjects received an initial bolus of 8 mg/kg of ODSH over 15 minutes, followed by 72 hours continuous infusion beginning at 0.58 mg/kg/hr. For each subject ODSH as a 50 mg/ml formulation was diluted with normal saline and administered as a bolus infused over 15 minutes containing the calculated amount of ODSH the subject was to receive, followed by infusion of ODSH diluted in saline. The infusion dose was adjusted to maintain an aPTT of 40-45 seconds. Immediately before infusion and after the start of each infusion, blood was drawn at periodic times (over a total 72 hour period) to monitor the effect of infusion on the following laboratory studies: activated partial thromboplastin time (aPTT), prothrombin time (PT), activated clotting time (ACT), and ODSH plasma level. Serum chemistries and a complete blood count were checked immediately before infusion and again periodically for up to 240 hours later. Using values for aPTT and ODSH levels, pharmacokinetic parameters were calculated by noncompartmental methods using a commercial software program (PhAST 2.3-001). The following pharmacokinetic parameters were calculated as above: Cmax; Kel; tmax; AUC O-t; AUCinf, t1/2; CL; and Vdss.

2-O, 3-O desulfated heparin [ODSH]
aPTT above baseline at ODSH blood concentrations of 100 μg/mL (blood coagulation (aPTT)): approximately 50 seconds | aPTT absolute value at ODSH blood concentrations of 100 μg/mL (blood coagulation (aPTT)): about 75 seconds | effect on NCX current (INCX) (NCX): significant stimulation of exchange | MPO activity in ischemic-reperfused myocardium [1]: significantly reduced | anti-coagulant activity [2]: less than 10 USP units/mg | platelet microparticle formation versus saline control [3]: no level of platelet microparticle formation above that of the saline control incubations | Platelet count, Day After Infusion [4]: 261 ± 37 thousands/μL blood | Platelet count, Day Before Infusion [4]: 261 ± 40 thousands/μL blood | Platelet count, Infusion Day 2 [4]: 258 ± 39 thousands/μL blood | Platelet count, Infusion Day 3 [4]: 272 ± 42 thousands/μL blood | ecchymosis [4]: Mild ecchymosis was reported in one subject | transient elevations in serum ALT and AST [4]: observed in seven subjects
